Measurements published in patent US8846928B2 (Portola Pharmaceuticals, Inc., priority 2010, dated 2014).
“And” between values parts separate entries of the source, which are not always exact repeats. Equal entries are not always repeated.

target: T1, full length active recombinant SYK enzyme (Homo sapiens, UniProt P43405); test: Inhibition of Syk tyrosine phosphorylation activity (LANCE TR-FRET kinase assay); type: biochemical
T1 construct: full length active recombinant SYK enzyme (Millipore, Calif.); purchased Millipore

| SMILES | IC50 |
| --- | --- |
| NC(=O)c1cc(F)c(N[C@@H]2CCCC(F)(F)[C@@H]2N)nc1Nc1cnn2ccccc12 [Example 420, 6-((1R,2R)-2-amino-3,3-difluorocyclohexylamino)-5-fluoro-2-(pyrazolo[1,5-a]pyridin-3-ylamino)nicotinamide] | 10 to 100 nM |
| N#Cc1cc(C(N)=O)c(Nc2cnc3ccccc3c2)nc1N[C@@H]1CCCC[C@@H]1N [Example 129] | 1 to 10 nM |
| NC(=O)c1ccc(N[C@@H]2CCCC[C@@H]2N)nc1Nc1ccc2c(c1)OCO2 [Example 255] | 1 to 10 nM and 10 to 100 nM |
| NC(=O)c1cc(F)c(N[C@@H]2CCCC[C@@H]2N)nc1Nc1ccc(-n2nccn2)cc1 [Example 49, 2-(4-(2H-1,2,3-triazol-2-yephenylamino)-6-(1R,2S)-2-aminocyclohexylamino)-5-fluoronicotinamide] | 10 to 100 nM |
| NC(=O)c1cc(F)c(N[C@@H]2CCCC[C@@H]2N)nc1Nc1ccc2nccn2c1 [Example 61, 6-((1R,2S)-2-aminocyclohexylamino)-5-fluoro-2-(imidazo[1,2-a]pyridin-6-ylamino)nicotinamide] | 1 to 10 nM |
| COc1ncc(Nc2nc(N[C@@H]3CCCC[C@@H]3N)c(F)cc2C(N)=O)cn1 [Example 166, 6-((1R,2S)-2-aminocyclohexylamino)-5-fluoro-2-(2-methoxypyrimidin-5-ylamino)nicotinamide] | 100 to 1000 nM |
| NC(=O)c1cc(F)c(N[C@@H]2CCCC[C@@H]2N)nc1Nc1ccnc2ccccc12 [Example 72] | 1 to 10 nM |
| NC(=O)c1cc(F)c(N[C@H]2CCCNC2)nc1Nc1ccc2ncccc2c1 [Example 143, (S)-5-fluoro-6-(piperidin-3-ylamino)-2-(quinolin-6-ylamino)nicotinamide] | > 1000 nM |
| NC(=O)c1cc(F)c(N[C@@H]2CCCC[C@@H]2N)nc1Nc1ccc2scnc2c1 [Example 310] | 1 to 10 nM |
| CC[C@@H](Nc1nc(Nc2ccc3c(cnn3C)c2)c(C(N)=O)cc1F)C(N)=O [Example 241, (R)-6-(1-amino-1-oxobutan-2-ylamino)-5-fluoro-2-(1-methyl-1H-indazol-5-ylamino)nicotinamide] | 10 to 100 nM |
| Cc1cc(Nc2nc(N[C@@H](C(N)=O)C3CC3)c(F)cc2C(N)=O)sn1 [Example 198, (R)-6-(2-amino-1-cyclopropyl-2-oxoethylamino)-5-fluoro-2-(3-methylisothiazol-5-ylamino)nicotinamide] | 10 to 100 nM |
| CC(C)C[C@@H](Nc1nc(Nc2ccc3ncccc3c2)c(C(N)=O)cc1F)C(N)=O [Example 248, (R)-6-(1-amino-4-methyl-1-oxopentan-2-ylamino)-5-fluoro-2-(quinolin-6-ylamino)nicotinamide] | 1 to 10 nM |
| CC[C@@H](Nc1nc(Nc2cnc3ncccc3c2)c(C(N)=O)cc1F)C(N)=O [Example 228, (R)-6-(1-amino-1-oxobutan-2-ylamino)-5-fluoro-2-(1,8-naphthyridin-3-ylamino)nicotinamide] | 10 to 100 nM |
| NC(=O)c1ccc(N[C@@H]2CCCC[C@@H]2N)nc1Nc1cncc(-c2ncccn2)c1 [Example 157, 6-((1R,2S)-2-aminocyclohexylamino)-2-(5-(pyrimidin-2-yl)pyridin-3-ylamino)nicotinamide] | 10 to 100 nM |
| COC[C@H](CN)Nc1nc(Nc2cccc(-n3nccn3)c2)c(C(N)=O)cc1F [Example 91, (S)-2-(3-(2H-1,2,3-triazol-2-yl)phenylamino)-6-(1-amino-3-methoxypropan-2-ylamino)-5-fluoronicotinamide] | 1 to 10 nM |
| NC(=O)c1cc(F)c(N[C@@H]2CCCC[C@@H]2N)nc1Nc1cnc2cccnc2c1 [Example 183, 2-(1,5-naphthyridin-3-ylamino)-6-((1R,2S)-2-aminocyclohexylamino)-5-fluoronicotinamide] | 1 to 10 nM |
| NC(=O)c1ccc(N[C@@H]2CCCC[C@@H]2N)nc1Nc1cncc(F)c1 [Example 179] | 1 to 10 nM |
| CC[C@H](Nc1nc(Nc2ccc(C)cc2)c(C(N)=O)cc1F)C1(N)CC1 [Example 370, (S)-6-(1-(1-aminocyclopropyl)propylamino)-5-fluoro-2-(p-tolylamino)nicotinamide] | > 1000 nM |
| N#Cc1cc(C(N)=O)c(Nc2cccc(-c3ncccn3)c2)nc1N[C@@H]1CCCC[C@@H]1N [Example 130] | 1 to 10 nM |
| NC(=O)c1cc(F)c(NC[C@@H](N)CC(F)F)nc1Nc1cncc(F)c1 [Example 382, (S)-6-(2-amino-4,4-difluorobutylamino)-5-fluoro-2-(5-fluoropyridin-3-ylamino)nicotinamide] | 100 to 1000 nM |
| NC(=O)c1cc(F)c(N[C@@H]2CCOC[C@@H]2N)nc1Nc1cccc(-n2nccn2)c1 [Example 279, 2-(3-(2H-1,2,3-triazol-2-yl)phenylamino)-6-((3R,4R)-3-aminotetrahydro-2H-pyran-4-ylamino)-5-fluoronicotinamide] | 1 to 10 nM |

| SMILES | IC50 |
| --- | --- |
| Cc1cncc(Nc2nc(N[C@@H]3CCCC[C@@H]3N)c(F)cc2C(N)=O)c1 [Example 87, 6-((1R,2S)-2-aminocyclohexylamino)-5-fluoro-2-(5-methylpyridin-3-ylamino)nicotinamide] | 1 to 10 nM |
| NC(=O)c1cc(F)c(N[C@@H]2CCCC[C@@H]2N)nc1Nc1cncs1 [Example 177, 6-((1R,2S)-2-aminocyclohexylamino)-5-fluoro-2-(thiazol-5-ylamino)nicotinamide] | > 1000 nM |
| N#Cc1cc(C(N)=O)c(Nc2cccc(-n3nccn3)c2)nc1N[C@@H]1CCCC[C@@H]1N [Example 106, 2-(3-(2H-1,2,3-triazol-2-yl)phenylamino)-6-((1R,2S)-2-aminocyclohexylamino)-5-cyanonicotinamide] | 1 to 10 nM |
| C[C@H](N)CNc1nc(Nc2cccc(-n3nccn3)c2)c(C(N)=O)cc1F [Example 257, (S)-2-(3-(2H-1,2,3-triazol-2-yl)phenylamino)-6-(2-aminopropylamino)-5-fluoronicotinamide] | 1 to 10 nM |
| NC(=O)c1cc(F)c(N[C@@H]2CCCC[C@@H]2N)nc1Nc1cccc2ccncc12 [Example 75, 6-((1R,2S)-2-aminocyclohexylamino)-5-fluoro-2-(isoquinolin-8-ylamino)nicotinamide] | 100 to 1000 nM |
| NC(=O)c1cc(F)c(N[C@@H]2CCCC[C@@H]2N)nc1Nc1ccc(-n2cccc2)cc1 [Example 188, 2-(4-(1H-pyrrol-1-yl)phenylamino)-6-((1R,2S)-2-aminocyclohexylamino)-5-fluoronicotinamide] | 1 to 10 nM |
| NC(=O)c1cc(F)c(N[C@@H]2CCCC[C@@H]2N)nc1Nc1ccc(N2CCCC2)cc1 [Example 53, 6-((1R,2S)-2-aminocyclohexylamino)-5-fluoro-2-(4-(pyrrolidin-1-yl)phenylamino)nicotinamide] | 10 to 100 nM |
| CC[C@@H](Nc1nc(Nc2cccc3c2ccn3C)c(C(N)=O)cc1F)C(N)=O [Example 243, (R)-6-(1-amino-1-oxobutan-2-ylamino)-5-fluoro-2-(1-methyl-1H-indol-4-ylamino)nicotinamide] | 10 to 100 nM |
| N#Cc1cc(C(N)=O)c(Nc2ccc3ncsc3c2)nc1N[C@@H]1CCCC[C@@H]1N [Example 118, 6-((1R,2S)-2-aminocyclohexylamino)-2-(benzo[d]thiazol-6-ylamino)-5-cyanonicotinamide] | 1 to 10 nM |
| C[C@H](N)CNc1nc(Nc2cccc(-c3ncccn3)c2)c(C(N)=O)cc1F [Example 258, (S)-2-(3-(pyrimidin-2-yl)phenylamino)-6-(2-aminopropylamino)-5-fluoronicotinamide] | 10 to 100 nM |
| C[C@H](CN)Nc1nc(Nc2cccc3nn(C)cc23)c(C(N)=O)cc1C#N [Example 112, (R)-6-(1-aminopropan-2-ylamino)-5-cyano-2-(2-methyl-2H-indazol-4-ylamino)nicotinamide] | 10 to 100 nM |
| Cc1cc(Nc2cc(N[C@H](Cc3ccccc3)C(N)=O)c(F)cc2C(N)=O)sn1 [Example 24, (R)-4-(1-amino-1-oxo-3-phenylpropan-2-ylamino)-5-fluoro-2-(3-methylisothiazol-5-ylamino)benzamide] | 1 to 10 nM |
| CCC[C@@H](Nc1nc(Nc2ccc3cccnc3c2)c(C(N)=O)cc1F)C(N)=O [Example 201, (R)-6-(1-amino-1-oxopentan-2-ylamino)-5-fluoro-2-(quinolin-7-ylamino)nicotinamide] | 100 to 1000 nM |
| COCCOc1cccc(Nc2nc(N[C@@H]3CCCC[C@@H]3N)c(F)cc2C(N)=O)c1 [Example 79, 6-((1R,2S)-2-aminocyclohexylamino)-5-fluoro-2-(3-(2-methoxyethoxy)phenylamino)nicotinamide] | 1 to 10 nM |
| CC[C@@H](Nc1ccc(C(N)=O)c(Nc2ccc3c(ccn3C)c2)n1)C(N)=O [Example 208, (R)-6-(1-amino-1-oxobutan-2-ylamino)-2-(1-methyl-1H-indol-5-ylamino)nicotinamide] | 10 to 100 nM |
| NC(=O)c1cc(F)c(N[C@@H]2CCCC[C@@H]2N)nc1Nc1ccccc1 [Example 312, 6-((1R,2S)-2-aminocyclohexylamino)-5-fluoro-2-(phenylamino)nicotinamide] | 1 to 10 nM |
| NC(=O)c1ccc(N[C@@H]2CCCC[C@@H]2N)nc1Nc1cnn2ccccc12 [Example 419, 6-((1R,2S)-2-aminocyclohexylamino)-2-(pyrazolo[1,5-a]pyridin-3-ylamino)nicotinamide] | 1 to 10 nM |
| NC(=O)c1cc(F)c(N[C@@H]2CCCC[C@@H]2N)nc1Nc1cc(F)cc(F)c1 [Example 324, 6-((1R,2S)-2-aminocyclohexylamino)-2-(3,5-difluorophenylamino)-5-fluoronicotinamide] | 1 to 10 nM |
| NC(=O)c1ccc(N[C@@H]2CCCC[C@@H]2N)cc1Nc1cc(-c2ccccc2)no1 [Example 7, 4-((1R,2S)-2-aminocyclohexylamino)-2-(3-phenylisoxazol-5-ylamino)benzamide] | 10 to 100 nM |
| Cn1cc2c(Nc3nc(N[C@@H]4CCCC[C@@H]4N)c(F)cc3C(N)=O)cccc2n1 [Example 65, 6-((1R,2S)-2-aminocyclohexylamino)-5-fluoro-2-(2-methyl-2H-indazol-4-ylamino)nicotinamide] | 100 to 1000 nM |
